Legend:
[1] = tested on: MCF-7 human breast adenocarcinoma cells; test: Cytotoxicity, SRB binding assay; type: cell-based; details: MCF7, inhibition of cell proliferation, 48 h, read-out: MCF-7 IC50
Procedure: To further assess the biological efficacies of the Compounds in intact cells, each Compound was evaluated for cytotoxicity using human cancer cell lines. These experiments followed methods that have been extensively used. Cell lines tested included MCF-7 human breast adenocarcinoma cells and MCF-10A non-transformed human breast epithelial cells. The indicated cell lines were treated with varying doses of the test Compound for 48 h. Cell survival was then determined using the SRB binding assay (Skehan et al., 1990, J Natl Cancer Inst 82: 1107), and the concentration of compound that inhibited proliferation by 50% (the IC50) was calculated. Values (in μM) represent the mean±sd for replicate trials.

recombinant human SK = test: Inhibition of recombinant human SK, LC/MS/MS assay; type: biochemical; details: 6 μg/ml compound
Procedure: SK activity is measured by incubation of the recombinant SK with [^3H]sphingosine and 1 mM ATP under defined conditions, followed by extraction of the assay mixture with chloroform:methanol under basic conditions. […] Radioactivity in aliquots of the aqueous phase is then quantified as a measure of [^3H]S1P formation.
In an alternate assay procedure, the recombinant human SK was incubated with unlabeled sphingosine and ATP as described above. After 30 minutes, the reactions were terminated by the addition of acetonitrile to directly extract the newly synthesized S1P. The amount of S1P in the samples is then quantified as follows. C17 base D-erythro-sphingosine and C17 SIP are used as internal standards for sphingosine and S1P, respectively. […] The lipids are then fractionation by High-Performance Liquid Chromatography using a C8-reverse phase column eluted with 1 mM methanolic ammonium formate/2 mM aqueous ammonium formate. […] Calibration curves are generated by plotting the peak area ratios of the synthetic standards for each sphingolipid, and used to determine the normalized amounts of sphingosine and S1P in the samples.
Each Compound of this invention was tested for its ability to inhibit recombinant SK using the LC/MS/MS assay described above.

SMILES	IC50 [1] [µM]	Recombinant SK (% inhibition) (recombinant human SK) [%]
O=C(NC1CC1)C12CC3CC(C1)CC(c1ccc(Cl)cc1)(C3)C2 [Compound 2, 3-(4-Chloro-phenyl)-adamantane-1-carboxylic acid cyclopropylamide]	20	0
CCSCCNC(=O)C12CC3CC(C1)CC(c1ccc(Cl)cc1)(C3)C2 [Compound 3, 3-(4-Chloro-phenyl)-adamantane-1-carboxylic acid (2-ethylsulfanyl-ethyl)-amide]	18	6
CC(=O)Oc1ccc(NC(=O)C23CC4CC(C2)CC(c2ccc(Cl)cc2)(C4)C3)cc1 [Compound 7, Acetic acid 4-{[3-(4-chloro-phenyl)-adamantane-1-carbonyl]-amino}-phenyl ester]	3	100
CSc1ccc(CNC(=O)C23CC4CC(C2)CC(c2ccc(Cl)cc2)(C4)C3)cc1 [Compound 14, 3-(4-Chloro-phenyl)-adamantane-1-carboxylic acid 4-methylsulfanyl-benzylamide]	36	19
O=C(NCc1ccc(C(F)(F)F)cc1)C12CC3CC(C1)CC(c1ccc(Cl)cc1)(C3)C2 [Compound 16, 3-(4-Chloro-phenyl)-adamantane-1-carboxylic acid 4-trifluoromethyl-benzylamide]	17	8
O=C(NCc1cc(C(F)(F)F)cc(C(F)(F)F)c1)C12CC3CC(C1)CC(c1ccc(Cl)cc1)(C3)C2 [Compound 17, 3-(4-Chloro-phenyl)-adamantane-1-carboxylic acid 3,5-bis-trifluoromethyl-benzylamide]	17	56
O=C(NCc1cc(F)cc(C(F)(F)F)c1)C12CC3CC(C1)CC(c1ccc(Cl)cc1)(C3)C2 [Compound 18, 3-(4-Chloro-phenyl)-adamantane-1-carboxylic acid 3-fluoro-5-trifluoromethyl-benzylamide]	19	0
O=C(NCc1cc(F)cc(F)c1)C12CC3CC(C1)CC(c1ccc(Cl)cc1)(C3)C2 [Compound 20, 3-(4-Chloro-phenyl)-adamantane-1-carboxylic acid 3,5-difluoro-benzylamide]	33	0
O=C(NCc1ccc(F)c(F)c1)C12CC3CC(C1)CC(c1ccc(Cl)cc1)(C3)C2 [Compound 21, 3-(4-Chloro-phenyl)-adamantane-1-carboxylic acid 3,4-difluoro-benzylamide]	27	65
O=C(NCc1cc(F)c(F)c(F)c1)C12CC3CC(C1)CC(c1ccc(Cl)cc1)(C3)C2 [Compound 22, 3-(4-Chloro-phenyl)-adamantane-1-carboxylic acid 3,4,5-trifluoro-benzylamide]	18	56
O=C(NCc1ccc(F)c(Cl)c1)C12CC3CC(C1)CC(c1ccc(Cl)cc1)(C3)C2 [Compound 23, 3-(4-Chloro-phenyl)-adamantane-1-carboxylic acid 3-chloro-4-fluoro-benzylamide]	23	0
O=C(NCc1ccc(F)c(C(F)(F)F)c1)C12CC3CC(C1)CC(c1ccc(Cl)cc1)(C3)C2 [Compound 24, 3-(4-Chloro-phenyl)-adamantane-1-carboxylic acid 4-fluoro-3-trifluoromethyl-benzylamide]	17	20
O=C(NCc1ccc(F)cc1Cl)C12CC3CC(C1)CC(c1ccc(Cl)cc1)(C3)C2 [Compound 25, 3-(4-Chloro-phenyl)-adamantane-1-carboxylic acid 2-chloro-4-fluoro-benzylamide]	87	47
O=C(NCc1ccc(Cl)c(C(F)(F)F)c1)C12CC3CC(C1)CC(c1ccc(Cl)cc1)(C3)C2 [Compound 26, 3-(4-Chloro-phenyl)-adamantane-1-carboxylic acid 4-chloro-3-trifluoromethyl-benzylamide]	19	36
NCc1c(Cl)c(Cl)c(Cl)c(CNC(=O)C23CC4CC(C2)CC(c2ccc(Cl)cc2)(C4)C3)c1Cl [Compound 27, 3-(4-Chloro-phenyl)-adamantane-1-carboxylic acid 3-aminomethyl-2,4,5,6-tetrachloro-benzylamide]	8	50
CC(NC(=O)C12CC3CC(C1)CC(c1ccc(Cl)cc1)(C3)C2)c1ccc(Cl)cc1 (centres unmarked) [Compound 28, 3-(4-Chloro-phenyl)-adamantane-1-carboxylic acid [1-(4-chloro-phenyl)-ethyl]-amide]	64	6

SMILES	IC50 [1] [µM]	Recombinant SK (% inhibition) (recombinant human SK) [%]
CS(=O)(=O)c1ccc(CNC(=O)C23CC4CC(C2)CC(c2ccc(Cl)cc2)(C4)C3)cc1 [Compound 30, 3-(4-Chloro-phenyl)-adamantane-1-carboxylic acid 4-methanesulfonyl-benzylamide]	14	1
CN(C)c1ccc(CNC(=O)C23CC4CC(C2)CC(c2ccc(Cl)cc2)(C4)C3)cc1 [Compound 31, 3-(4-Chloro-phenyl)-adamantane-1-carboxylic acid 4-dimethylamino-benzylamide]	74	74
O=C(NCc1ccc(OC(F)(F)F)cc1)C12CC3CC(C1)CC(c1ccc(Cl)cc1)(C3)C2 [Compound 32, 3-(4-Chloro-phenyl)-adamantane-1-carboxylic acid 4-trifluoromethoxy-benzylamide]	24	17
O=C(NCc1cccc(OC(F)(F)F)c1)C12CC3CC(C1)CC(c1ccc(Cl)cc1)(C3)C2 [Compound 33, 3-(4-Chloro-phenyl)-adamantane-1-carboxylic acid 3-trifluoromethoxy-benzylamide]	30	10
O=C(NCc1ccc(Oc2ccccc2)cc1)C12CC3CC(C1)CC(c1ccc(Cl)cc1)(C3)C2 [Compound 34, 3-(4-Chloro-phenyl)-adamantane-1-carboxylic acid 4-phenoxy-benzylamide]	> 106	0
O=C(NCc1ccc(O)c(O)c1)C12CC3CC(CC(C3)C1)C2 [Compound 35, Adamantane-1-carboxylic acid 3,4-dihydroxy-benzylamide]	19	87
COc1ccc(CCNC(=O)C23CC4CC(C2)CC(c2ccc(Cl)cc2)(C4)C3)cc1Br [Compound 42, 3-(4-Chloro-phenyl)-adamantane-1-carboxylic acid [2-(3-bromo-4-methoxy-phenyl)-ethyl]-amide]	> 100	5
O=C(NCCc1ccc(O)c(O)c1)C12CC3CC(CC(C3)C1)C2 [Compound 43, Adamantane-1-carboxylic acid [2-(3,4-dihydroxy-phenyl)-ethyl]-amide]	27	0
O=C(NCCc1ccc2c(c1)OCO2)C12CC3CC(C1)CC(c1ccc(Cl)cc1)(C3)C2 [Compound 45, 3-(4-Chloro-phenyl)-adamantane-1-carboxylic acid (2-benzo[1,3]dioxol-5-yl-ethyl)-amide]	17	64
O=C(NCCc1cccc(Oc2ccccc2)c1)C12CC3CC(C1)CC(c1ccc(Cl)cc1)(C3)C2 [Compound 46, 3-(4-Chloro-phenyl)-adamantane-1-carboxylic acid [2-(3-phenoxy-phenyl)-ethyl]-amide]	91	4
O=C(NCCc1ccc(Oc2ccccc2)cc1)C12CC3CC(C1)CC(c1ccc(Cl)cc1)(C3)C2 [Compound 47, 3-(4-Chloro-phenyl)-adamantane-1-carboxylic acid [2-(4-phenoxy-phenyl)-ethyl]-amide]	16	26
O=C(NCc1ccc(-c2ccccc2)cc1)C12CC3CC(C1)CC(c1ccc(Cl)cc1)(C3)C2 [Compound 49, 3-(4-Chloro-phenyl)-adamantane-1-carboxylic acid (biphenyl-4-ylmethyl)-amide]	68	33
CN1CCC(NC(=O)C23CC4CC(CC(C4)C2)C3)CC1 [Compound 50, Adamantane-1-carboxylic acid (1-methyl-piperidin-4-yl)-amide]	181	0
CC(C)(C)NCCCNC(=O)C12CC3CC(C1)CC(c1ccc(Cl)cc1)(C3)C2 [Compound 53, 3-(4-Chloro-phenyl)-adamantane-1-carboxylic acid (3-tert-butylamino-propyl)-amide]	11	52
O=C(NCCCN1CCCC1)C12CC3CC(C1)CC(c1ccc(Cl)cc1)(C3)C2 [Compound 54, 3-(4-Chloro-phenyl)-adamantane-1-carboxylic acid (3-pyrrolidin-1-yl-propyl)-amide]	11	95

— patent US8557800B2, “Sphingosine kinase inhibitors” (Apogee Biotechnology Corporation, priority 2005, dated 2013)
